Like-named read-outs stand apart in the source and are kept apart here.
Columns and labels:
[1] = Drug uptake into sinus tissue after drug coated balloon delivery, ovine model (HPLC of tissue samples); assay type: in vivo; details: other: drug coated balloon expanded in the maxillary sinus, sheep, Example 3 balloon (solvent vapor annealed coating) expanded 5 minutes in maxillary sinus, tissue sampled after 7 days
Procedure: (§1) A 30 mm 80A Pellethane® compliant balloon was cleaned with 70% isopropanol and dried in an oven. The balloon was then treated with oxygen plasma and immediately spray coated with a mometasone furoate formulation listed in Table 1. Post-spray pass drying was conducted with nitrogen gas. Next, the drug coated balloon was treated by solvent vapor annealing (i.e., exposed to a solvent vapor) in a sealed chamber saturated with ethanol for four hours at room temperature. After solvent vapor annealing, the balloon was re-folded and heat set using a custom pleating machine. The coated balloon was then sheathed and packaged under nitrogen gas and sterilized by electron beam irradiation.
(§2) A drug coated balloon made using the process described in Example 3 was advanced to a sheep maxillary sinus using a rigid 4 mm endoscope and expanded for 5 minutes, and then deflated and removed from the nostril. After 7 days the animal was sacrificed and tissue samples obtained from the maxillary sinus and surrounding tissues. […] Plasma concentration of mometasone furoate was also measured over 7 days. Referring to Table 3 below and FIG. 3, mometasone furoate (MF) plasma concentration was low and found to decrease over the 7 day period from an initially low value. […] Low systemic exposure generally lowers the risk of a patient experiencing side effects from the delivered drug.

[2] = Plasma concentration of mometasone furoate after drug coated balloon delivery to ovine maxillary sinus; assay type: in vivo; details: other: drug coated balloon expanded in the maxillary sinus, sheep, read-out: MF Plasma Concentration
Procedure: as §1, §2

C[C@@H]1C[C@H]2[C@@H]3CCC4=CC(=O)C=C[C@]4(C)[C@@]3(Cl)[C@@H](O)C[C@]2(C)[C@@]1(OC(=O)c1ccco1)C(=O)CCl [mometasone furoate]
concentration at 7 days ([1]; read-out: mometasone furoate concentration in maxillary sinus tissue): 146 ng/g | concentration at 7 days ([1]; tissues surrounding the maxillary sinus, read-out: mometasone furoate concentration in tissues surrounding the maxillary sinus): 55 ng/g | concentration at 0 day ([2]; day 0 after Example 3 balloon delivery to maxillary sinus): 0.3 ng/mL | concentration at 1 day ([2]; day 1 after Example 3 balloon delivery to maxillary sinus): 0.3 ng/mL | concentration at 4 day ([2]; day 4 after Example 3 balloon delivery to maxillary sinus): 0.05 ng/mL | concentration at 7 day ([2]; day 7 after Example 3 balloon delivery to maxillary sinus): < 0.01 ng/mL

From patent US12064577B2, “Drug-coated balloon” (Intersect ENT, Inc., priority 2015, dated 2024)
